Consider 6 compounds from patent US4996358A, “Hydroxylamine bearing amino acid derivatives as collagenase inhibitors” (Hoffmann-La Roche Inc., priority 1986, dated 1991).

The assay addresses T1, human synovial collagenase (Homo sapiens, UniProt P03956).
T1 construct: endogenous in cells; host or cells: human synovial fibroblast culture; procollagenase partially purified from the culture medium
T1 sequence (P03956 100-469): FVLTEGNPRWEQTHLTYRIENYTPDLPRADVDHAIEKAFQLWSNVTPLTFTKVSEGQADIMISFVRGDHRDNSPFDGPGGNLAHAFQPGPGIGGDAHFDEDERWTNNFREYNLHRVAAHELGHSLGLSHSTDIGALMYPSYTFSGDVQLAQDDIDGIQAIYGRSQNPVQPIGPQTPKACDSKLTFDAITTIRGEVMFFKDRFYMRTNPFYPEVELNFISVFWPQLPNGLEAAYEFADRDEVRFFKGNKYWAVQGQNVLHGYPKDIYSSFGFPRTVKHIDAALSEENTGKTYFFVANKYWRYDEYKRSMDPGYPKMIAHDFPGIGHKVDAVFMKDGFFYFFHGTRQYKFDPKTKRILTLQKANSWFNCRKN
Description: In vitro inhibition of collagenase from human synovial fibroblast culture (synthetic peptide substrate cleavage). Type of assay: biochemical. As to conditions: trypsin-activated procollagenase; 0.5 mmol N-acetyl-L-prolyl-L-leucylglycyl-L-leucyl-L-leucylglycyl ester substrate; borate buffer pH 7.5, CaCl2; 37° C., 1 hour; read-out: Inhibitory activity against human synovial collagenase IC50. Here is the method: Procollagenase was partially purified from the cell culture medium by negative adsorption on DEAE Sephadex A-50 at pH 8.1 and activated by treatment with tryspin. The inhibitory activity of the present hydroxylamine derivatives was determined using a synthetic substrate, N-acetyl-L-prolyl-L-leucylglycyl-L-leucyl-L-leucylglycyl […], for this collagenase. The enzyme was added to a solution of 0.5 mmol of substrate in 50 mmol of borate buffer (pH 7.5) containing 1 mmol of calcium chloride and a known concentration of peptide derivative. The resulting solution was incubated at 37° C. for 1 hour. Enzyme digestion of the substrate was terminated by the addition of an equal volume of 2% (weight/volume) sodium hydrogen carbonate solution in 50% aqueous methanol containing 0.1% (weight/volume) of picrylsulfonic acid. The solution obtained was incubated at 37° C. for an additional 1 hour in order to allow reaction between the L-leucyl-L-leucyl-glycyl ethyl ester generated by the cleavage of the substrate and the picrylsulfonic acid to give trinitrophenyl-L-leucyl-L-leucylglycyl ethyl ester. The reaction was terminated and stabilized by acidification with IN hydrochloric acid. The concentration of trinitrophenyl-L-leucyl-L-leucylglycyl ethyl ester was determined by spectrophotometry at 335 nm. The IC50 is that concentration of hydroxylamine derivative of formula I of the invention in the enzyme digestion which reduces substrate cleavage to 50% of that achieved by the enzyme alone.
For orientation: IC50 means the point on the concentration scale where inhibition reaches its midpoint. For the compound `CCOC(=O)CNC(=O)[C@H](CC(C)C)NC(=O)C(CC(C)C)CN(O)C=O` (mixture of isomers) [C, [N-formyl-N-hydroxy 2(RS)-isobutyl-3-aminopropionyl]-L-leucylglycine ethyl ester], the IC50 was found to be 300 nM.
To `CCOC(=O)CNC(=O)[C@H](CC(C)C)NC(=O)[C@@H](CC(=O)NO)CC(C)C` [A, [4-(N-Hydroxyamino) 2(R)-isobutylsuccinyl]-L-leucylglycine ethyl ester] belongs 25 nM.
The same measure for `CCOC(=O)[C@H](C)NC(=O)[C@H](CC(C)C)NC(=O)[C@@H](CC(=O)NO)CC(C)C` [B, [4-(N-hydroxyamino) 2(R)-isobutylsuccinyl]-L-leucyl-L-alanine ethyl ester]: 8.5 nM.
In the case of `CCOC(=O)[C@H](C)NC(=O)[C@H](CCCCNC(=O)CN)NC(=O)[C@@H](CC(=O)NO)CC(C)C` [D, N^α -[4-(N-hydroxyamino) 2(R)-isobutylsuccinyl]-N^ε -glycyl-L-lysyl-L-alanine ethyl ester], the IC50 worked out at 30 nM.
With `CC(C)C[C@H](CC(=O)NO)C(=O)NC1CCCCCCCCCCNC1=O` (stereo partly drawn) [E, [4-(N-hydroxyamino) 2(R)-isobutylsuccinyl]-3(RS)-aminolaurolactam], the IC50 turned out to be 38 nM.
With `CCOC(=O)CNC(=O)[C@H](CC(C)C)NC(=O)[C@H](CC(C)C)[C@H](CCCCN1C(=O)c2ccccc2C1=O)C(=O)NO` [F, [4-(N-hydroxyamino) 3(S)-phthaloylaminobutyl-2(R)-isobutylsuccinyl]-L-leucylglycine ethyl ester], the IC50 is 12 nM.
